Molecular target: T1, MYLK2 (skMLCK) (Homo sapiens, UniProt Q9H1R3)
T1 construct: purchased Thermo Fisher Scientific (Life Technologies) SelectScreen
Test: SelectScreen Z'LYTE
Assay type: biochemical
How it was run: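 Percent values come from Thermo SelectScreen profiling of NU5455, combining activity and binding assays. CSF1R was run in Z'LYTE format at Km app ATP, and CAMK1 in Adapta format with ATP listed at 10.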

T1 sequence (Q9H1R3 whole entry): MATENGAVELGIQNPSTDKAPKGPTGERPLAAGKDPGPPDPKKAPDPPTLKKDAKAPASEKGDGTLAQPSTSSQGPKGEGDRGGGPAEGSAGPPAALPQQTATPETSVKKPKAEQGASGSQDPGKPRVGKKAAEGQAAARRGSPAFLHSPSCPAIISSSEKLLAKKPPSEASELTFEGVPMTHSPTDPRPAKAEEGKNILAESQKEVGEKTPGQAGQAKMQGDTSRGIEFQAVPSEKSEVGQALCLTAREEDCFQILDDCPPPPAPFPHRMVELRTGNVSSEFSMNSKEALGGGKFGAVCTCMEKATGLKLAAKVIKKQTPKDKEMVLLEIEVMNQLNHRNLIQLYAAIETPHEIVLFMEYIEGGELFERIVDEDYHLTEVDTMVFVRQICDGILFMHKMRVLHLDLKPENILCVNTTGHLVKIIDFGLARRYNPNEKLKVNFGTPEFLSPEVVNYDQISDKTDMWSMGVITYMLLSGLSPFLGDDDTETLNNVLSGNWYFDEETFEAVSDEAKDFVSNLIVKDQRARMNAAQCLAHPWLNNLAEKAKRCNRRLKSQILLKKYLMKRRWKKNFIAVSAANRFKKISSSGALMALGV

CN(C(=O)CN1CCOCC1)c1ccc2sc3c(-c4cccc5c(=O)cc(N6CC7CCC(C6)O7)oc45)cccc3c2c1 [NU5455]
inhibition at 1 µM: -2.2%

From paper PMC6934184, “Selective DNA-PKcs inhibition extends the therapeutic index of localized radiotherapy and chemotherapy” (The Journal of Clinical Investigation, 2019)
